From patent US9521847B2, “Synergistic weed control from applications of pyridine carboxylic acid herbicides and synthetic auxin herbicides and/or auxin transport inhibitors” (Dow AgroSciences LLC, priority 2014, dated 2016)
“And” between values parts separate entries of the source, which are not always exact repeats. Identical values can stand only once. Like-named read-outs stand apart in the source and are kept apart here.

Experiments:
[1] = system: brown mustard (Brassica juncea, BRSJU); assay: Greenhouse postemergence trial, % visual injury; assay type: in vivo; conditions: BRSJU; 2,3,5-TIBA 140 g ai/ha
[2] = system: spring rape (Brassica napus, BRSNN); assay: Greenhouse postemergence trial, % visual injury; conditions: for % visual injury, Obs: BRSNN
[3] = system: Roundup Ready rape (Brassica napus, BRSNN-RR); assay: Greenhouse postemergence trial, % visual injury; assay type: in vivo
maize (ZEAMX) [4] = assay: Greenhouse postemergence trial, crop phytotoxicity (% visual injury); conditions: ZEAMX
[5] = system: velvetleaf (Abutilon theophrasti, ABUTH); assay: Greenhouse postemergence trial, % visual injury; assay type: in vivo; conditions: Abutilon theophrasti, post-emergence, read-out: % visual injury, Obs; for pest or weed control at 5 g/ha / pest or weed control at 10 g/ha: ABUTH
[6] = system: winter rape (BRSNW, Brassica napus); assay: Greenhouse postemergence trial, % visual injury; assay type: in vivo; conditions: for % visual injury, Obs: BRSNW
[7] = system: wild buckwheat (Polygonum convolvulus, POLCO); assay: Greenhouse postemergence trial, % visual injury; assay type: in vivo; conditions: for % visual injury, Obs: POLCO
[8] = system: wild pansy (Viola tricolor, VIOTR); assay: Greenhouse postemergence trial, % visual injury; conditions: for % visual injury, Obs: VIOTR
[9] = system: sunflower (Helianthus annus, HELAN); assay: Greenhouse postemergence trial, % visual injury; assay type: in vivo; conditions: HELAN
[10] = system: turnip (Brassica rapa, BRSRR); assay: Greenhouse postemergence trial, % visual injury; assay type: in vivo; conditions: for % visual injury, Obs: BRSRR
common rice (ORYSA) = assay: Greenhouse postemergence trial, crop phytotoxicity (% visual injury); conditions: ORYSA
[11] = system: Chinese kale (Brassica alboglabra, BRSAG); assay: Greenhouse postemergence trial, % visual injury; assay type: in vivo; conditions: BRSAG
winter wheat (TRZAW) [12] = assay: Greenhouse postemergence trial, crop phytotoxicity (% visual injury); conditions: TRZAW
[13] = system: wild mustard (Sinapis arvensis, SINAR); assay: Greenhouse postemergence trial, % visual injury; assay type: in vivo; conditions: for % visual injury, Obs: SINAR
[14] = system: nutsedge (Cyperus esculentus, CYPES); assay: Greenhouse postemergence trial, % visual injury; assay type: in vivo; conditions: CYPES
[15] = system: grain sorghum (Sorghum vulgare, SORVU); assay: Greenhouse postemergence trial, % visual injury; assay type: in vivo; conditions: SORVU
[16] = system: kochia (KCHSC, Kochia scoparia); assay: Greenhouse postemergence trial, % visual injury; assay type: in vivo; conditions: for % visual injury, Obs.: Table 61
Description: Following the protocol in Example 1, compound 1 and compound 2 were combined with 2,4 D EHE (EC) and applied to kochia (KCHSC, Kochia scoparia) and the phytotoxicity of the herbicidal compositions was measured.
Following the protocol in Example 1, compound 1 (EC) and Compound 2 (SC) were combined with diflufenzopyr and applied to kochia (Kochia scoparia, KCHSC) and the phytotoxicity of the herbicidal composition was measured.

[17] = system: black mustard (Brassica nigra, BRSNI); assay: Greenhouse postemergence trial, % visual injury; assay type: in vivo
[18] = system: blackgrass (Alopecurus myosuroides, ALOMY); assay: Greenhouse postemergence trial, % visual injury; assay type: in vivo
[19] = system: Indian hedge mustard (Sisymbrium orientale, SSYOR); assay: Greenhouse postemergence trial, % visual injury; assay type: in vivo
[20] = system: poinsettia (Euphorbia heterophylla, EPHHL); assay: Greenhouse postemergence trial, % visual injury; conditions: Euphorbia heterophylla, post-emergence
[21] = system: pigweed (AMARE, Amaranthus retroflexus); assay: Greenhouse postemergence trial, % visual injury; assay type: in vivo; conditions: AMARE
[22] = system: Russian thistle (Salsola iberica, SASKR); assay: Greenhouse postemergence trial, % visual injury; assay type: in vivo; conditions: SASKR
[23] = system: large crabgrass (Digitaria sanguinalis, DIGSA); assay: Greenhouse postemergence trial, % visual injury; assay type: in vivo; conditions: DIGSA
[24] = system: wild radish (Raphanus raphanistrum, RAPRA); assay: Greenhouse postemergence trial, % visual injury; assay type: in vivo
winter wheat (TRZAW) [25] = conditions: winter wheat (Triticum aestivum), in vivo
[26] = system: ivyleaf morningglory (Ipomoea hederacea, IPOHE); assay: Greenhouse postemergence trial, % visual injury; conditions: Ipomoea, post-emergence
maize (ZEAMX) [27] = conditions: maize (Zea mays), in vivo
[28] = system: wild oat (Avena fatua, VEFA); assay: Greenhouse postemergence trial, % visual injury; assay type: in vivo; conditions: AVEFA
[29] = system: common lambsquarters (CHEAL, Chenopodium album L.); assay: Greenhouse postemergence trial, % visual injury; assay type: in vivo; conditions: CHEAL
[30] = system: rutabaga (Brassica napus var. napobrassica, BRSNA); assay: Greenhouse postemergence trial, % visual injury; assay type: in vivo; conditions: BRSNA; naptalam 140 g ai/ha
[31] = system: Canadian thistle (CIRAR, Cirsium arvense); assay: Greenhouse postemergence trial, % visual injury; conditions: CIRAR; naptalam 140 g ai/ha;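 note: plants sprayed at second to third true leaf stage, injury scored visually 20-22 d later against solvent-blank sprayed controls, 0 meaning no injury and 100 complete kill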
[32] = Brassica napus, post-emergence, read-out: % visual injury, Obs

Which results are given for `O=C(O)c1cc(I)cc(I)c1I` [2,3,5-TIBA, 2,3,5-triiodobenzoic acid, reference compound]?
% visual injury, Obs [1]: 10%; plant injury at 140 g/ha [2, 32]: 5%; % visual injury, Obs ([3]; 2,3,5-TIBA 140 g ai/ha): 0%; % visual injury, Obs (maize (ZEAMX) [4]; 2,3,5-TIBA 140 g ai/ha): 0%; pest or weed control at 140 g/ha [5]: 0%; % visual injury, Obs ([6]; 2,3,5-TIBA 140 g ai/ha): 0%; % visual injury, Obs ([7]; 2,3,5-TIBA 140 g ai/ha): 0%; % visual injury, Obs ([8]; 2,3,5-TIBA 140 g ai/ha): 0%; % visual injury, Obs ([9]; 2,3,5-TIBA 140 g ai/ha): 0%; % visual injury, Obs ([10]; 2,3,5-TIBA 140 g ai/ha): 20%; % visual injury, Obs (common rice (ORYSA); 2,3,5-TIBA 140 g ai/ha): 0%; % visual injury, Obs ([11]; 2,3,5-TIBA 140 g ai/ha): 0%; % visual injury, Obs (winter wheat (TRZAW) [12]; 2,3,5-TIBA 140 g ai/ha): 0%

What does the source list for `Nc1c(F)c(-c2ccc3cc[nH]c3c2F)nc(C(=O)OCc2ccccc2)c1Cl` [compound 2]?
% visual injury, Obs ([13]; 5 g ae/ha): 95%; % visual injury, Obs ([13]; 10 g ae/ha): 100%; % visual injury (Obs) ([13]; compound 2 SC 2.5 g ae/ha): 87%; % visual injury (Obs) ([13]; compound 2 SC 5 g ae/ha): 100% and 94%; % visual injury (Obs) ([13]; compound 2 SC 10 g ae/ha): 100%; % visual injury, Obs ([14]; 5 g ae/ha): 5%; % visual injury, Obs ([14]; 10 g ae/ha): 10%; % visual injury, Obs ([14]; compound 2 (EC) 5 g ae/ha): 5%; % visual injury, Obs ([14]; compound 2 (EC) 10 g ae/ha): 10%; % visual injury, Obs ([2]; compound 2 (EC) 5 g ae/ha): 30%; % visual injury, Obs ([2]; compound 2 (EC) 10 g ae/ha): 55%; plant injury at 5 g/ha [2, 32]: 30%; plant injury at 10 g/ha [2, 32]: 55%; % visual injury, Obs ([15]; 5 g ae/ha): 38%; % visual injury, Obs ([15]; 10 g ae/ha): 63%; % visual injury Obs ([16]; 8.75 g ae/ha alone, 20-22 d): 55%; pest or weed control at 5 g/ha ([16]; Bassia scoparia, post-emergence, KCHSC, 5 g ae/ha, read-out: % visual injury, Obs): 30%; pest or weed control at 10 g/ha ([16]; Bassia scoparia, post-emergence, KCHSC, 10 g ae/ha, read-out: % visual injury, Obs): 75%; % visual injury, Obs. ([16]; KCHSC, compound 2 (SC) 8.75 g ae/ha): 84%; % visual injury, Obs. ([16]; KCHSC, compound 2 (SC) 17.5 g ae/ha): 86%; pest or weed control at 5 g/ha ([5]; 5 g ae/ha): 78%; pest or weed control at 10 g/ha ([5]; 10 g ae/ha): 95%; pest or weed control at 5 g/ha ([5]; compound 2 (EC) 5 g ae/ha): 78%; pest or weed control at 10 g/ha ([5]; compound 2 (EC) 10 g ae/ha): 95%; % visual injury, Obs ([6]; 5 g ae/ha): 30%; % visual injury, Obs ([6]; 10 g ae/ha): 50%; % visual injury (Obs) ([6]; compound 2 SC 5 g ae/ha): 50%; % visual injury (Obs) ([6]; compound 2 SC 10 g ae/ha): 50%; % visual injury (Obs) ([7]; compound 2 SC 5 g ae/ha): 30%; % visual injury (Obs) ([7]; compound 2 SC 10 g ae/ha): 50%; % visual injury (Obs) ([17]; compound 2 SC 2.5 g ae/ha): 30%; % visual injury (Obs) ([17]; compound 2 SC 5 g ae/ha): 70%; % visual injury, Obs ([18]; 5 g ae/ha): 0%; % visual injury, Obs ([18]; 10 g ae/ha): 0%; % visual injury (Obs) ([19]; compound 2 SC 2.5 g ae/ha): 20%; % visual injury (Obs) ([19]; compound 2 SC 5 g ae/ha): 40%; pest or weed control at 5 g/ha ([20]; read-out: % visual injury, Obs, EPHHL, 5 g ae/ha): 35%; pest or weed control at 10 g/ha ([20]; read-out: % visual injury, Obs, EPHHL, 10 g ae/ha): 75%; pest or weed control at 5 g/ha ([20]; read-out: % visual injury, Obs, EPHHL, compound 2 (EC) 5 g ae/ha): 35%; pest or weed control at 10 g/ha ([20]; read-out: % visual injury, Obs, EPHHL, compound 2 (EC) 10 g ae/ha): 75%; % visual injury, Obs ([8]; 5 g ae/ha): 15%; % visual injury, Obs ([8]; 10 g ae/ha): 40%; % visual injury, Obs ([8]; compound 2 (EC) 5 g ae/ha): 15%; % visual injury, Obs ([8]; compound 2 (EC) 10 g ae/ha): 40%; % visual injury (Obs) ([8]; compound 2 SC 2.5 g ae/ha): 13%; % visual injury (Obs) ([8]; compound 2 SC 5 g ae/ha): 23%; % visual injury, Obs ([21]; 5 g ae/ha): 88% and 65%; % visual injury, Obs ([21]; 10 g ae/ha): 100% and 60%; % visual injury, Obs ([21]; compound 2 (EC) 5 g ae/ha): 88%; % visual injury, Obs ([21]; compound 2 (EC) 10 g ae/ha): 100%; % visual injury, Obs ([22]; 5 g ae/ha): 10%; % visual injury, Obs ([22]; 10 g ae/ha): 10%; % visual injury, Obs ([23]; compound 2 (EC) 5 g ae/ha): 28%; % visual injury, Obs ([23]; compound 2 (EC) 10 g ae/ha): 53%; pest or weed control at 5 g/ha ([23]; Digitaria sanguinalis, post-emergence, 5 g ae/ha, read-out: % visual injury, Obs): 28%; pest or weed control at 10 g/ha ([23]; Digitaria sanguinalis, post-emergence, 10 g ae/ha, read-out: % visual injury, Obs): 53%; % visual injury (Obs) ([10]; compound 2 SC 2.5 g ae/ha): 23%; % visual injury (Obs) ([10]; compound 2 SC 5 g ae/ha): 67%; % visual injury (Obs) ([24]; compound 2 SC 2.5 g ae/ha): 17%; % visual injury (Obs) ([24]; compound 2 SC 5 g ae/ha): 25%; % visual injury, Obs (winter wheat (TRZAW) [25]): 3%; pest or weed control at 5 g/ha ([26]; read-out: % visual injury, Obs, IPOHE, 5 g ae/ha): 10%; pest or weed control at 10 g/ha ([26]; read-out: % visual injury, Obs, IPOHE, 10 g ae/ha): 20%; pest or weed control at 5 g/ha ([26]; read-out: % visual injury, Obs, IPOHE, compound 2 (EC) 5 g ae/ha): 10%; pest or weed control at 10 g/ha ([26]; read-out: % visual injury, Obs, IPOHE, compound 2 (EC) 10 g ae/ha): 20%; % visual injury, Obs (maize (ZEAMX) [27]): 3%; % visual injury, Obs ([28]; 5 g ae/ha): 0%; % visual injury, Obs ([28]; 10 g ae/ha): 0%; % visual injury, Obs ([29]; 5 g ae/ha): 88%; % visual injury, Obs ([29]; 10 g ae/ha): 99%

With `O=C(O)c1ccccc1C(=O)Nc1cccc2ccccc12` [naptalam, reference compound] as the compound, how does the “% visual injury, Obs” value [30] read?
Its value is 0%.

And the “% visual injury, Obs” value ([3]; naptalam 140 g ai/ha)?
Its value is 0%.

What about the “% visual injury, Obs” value (maize (ZEAMX) [4]; naptalam 140 g ai/ha) of the same compound?
The value was 0%.

What about the pest or weed control at 140 g/ha [5] of the same compound?
Its pest or weed control at 140 g/ha is 0%.

And the “% visual injury, Obs” value ([6]; naptalam 140 g ai/ha)?
Its value is 0%.

And the “% visual injury, Obs” value ([7]; naptalam 140 g ai/ha)?
Its value is 0%.

What about the “% visual injury, Obs” value ([8]; naptalam 140 g ai/ha) of the same compound?
Its value is 0%.

And the “% visual injury, Obs” value ([9]; naptalam 140 g ai/ha)?
The value was 0%.

And the “% visual injury, Obs” value ([10]; naptalam 140 g ai/ha)?
Its value is 0%.

And the “% visual injury, Obs” value (common rice (ORYSA); naptalam 140 g ai/ha)?
Its value is 0%.

What about the “% visual injury, Obs” value [31] of the same compound?
Its value is 0%.

What about the “% visual injury, Obs” value ([11]; naptalam 140 g ai/ha) of the same compound?
The value was 0%.

And the “% visual injury, Obs” value (winter wheat (TRZAW) [12]; naptalam 140 g ai/ha)?
The value was 0%.
